This is an account of results in patent publication US8304447B2, “2-acylaminopropoanol-type glucosylceramide synthase inhibitors” (Genzyme Corporation, priority 2007, dated 2012).

One test has as its system GM3. Put plainly: GM3 Elisa assay. As to conditions: 48 h, Table 1; B16-FO cells, 2 days incubation; read-out: IC50_uM_Mean. The class given is cell-based. An outline of the steps: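 Murine B16-FO melanoma cells attached 6 h on collagen, then exposed to compounds for 2 days at 37 °C. After formaldehyde fixation, cell-surface GM3 (NeuAc) was detected by anti-GM3 IgM and peroxidase anti-mouse IgM with Quantablu fluorescence (Ex 325/Em 420).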
On to `O=C(CCCCCCCCCCCc1cccnc1)N[C@H](CN1CCCC1)[C@H](O)c1ccc2c(c1)OCCO2` [Compound 305], for which the IC50 is not above 100 nM.

Still in this test, the particulars now being: 48 h, Table 2; B16-FO cells, 2 days incubation; read-out: IC50_uM_Mean.
With `COc1ccc(CNC(=O)N(C)[C@H](CN2CCCC2)[C@H](O)c2ccc3c(c2)OCCO3)cc1` [Compound 256], the IC50 was in the range of 100 to 1000 nM.

Take `COc1ccc(OCCC(=O)N[C@H](CN2CCOCC2)[C@H](O)c2ccc3c(c2)OCCO3)cc1` [Compound 257, N-((1R,2R)-1-(2,3-dihydrobenzo[β][1,4]dioxin-6-yl)-1-hydroxy-3-morpholinopropan-2-yl)-3-(4-methoxyphenoxy)propanamide]: the IC50 lay in the range of 3000 to 10000 nM.

Turning to `O=C(Cc1ccc(OC(F)(F)F)cc1)N[C@H](CN1CCOCC1)[C@H](O)c1ccc2c(c1)OCCO2` [Compound 258], the IC50 was in the range of 3000 to 10000 nM.

On to `COc1ccc(OCCC(=O)N[C@H](CN2CCCC2)[C@H](O)c2ccc3c(c2)OCO3)cc1` [Compound 259], for which the IC50 is not above 100 nM.

Turning to `CCCCc1ccc([C@@H](O)[C@@H](CN2CCCC2)NC(=O)CCOc2ccc(OC)cc2)cc1` [Compound 260], the IC50 was not above 100 nM.

Consider `COc1ccc(OCCC(=O)N[C@H](CN2CCCCC2)[C@H](O)c2ccc3c(c2)OCCO3)cc1` [Compound 261, N-((1R,2R)-1-(2,3-dihydrobenzo[β][1,4]dioxin-6-yl)-1-hydroxy-3-(piperidin-1-yl)propan-2-yl)-3-(4-methoxyphenoxy)propanamide], for which the IC50 was 100 to 1000 nM.

On to `COc1ccc(OCCC(=O)N[C@H](CN2CCCC2)[C@H](O)c2ccc(OC)cc2)cc1` [Compound 262, N-[2-Hydroxy-2-(4-methoxy-phenyl)-1-pyrrolidin-1-ylmethyl-ethyl]-3-(4-methoxy-phenoxy)-propionamide], for which the IC50 was not above 100 nM.

`COc1ccc(CCCC(=O)N[C@H](CN2CCCC2)[C@H](O)c2ccc(OC)cc2)cc1` [Compound 263]: the IC50 lay in the range of 100 to 1000 nM.

Take `Cc1ccc(C(=O)CCC(=O)N[C@H](CN2CCCC2)[C@H](O)c2ccc3c(c2)CCCC3)cc1` [Compound 264]: the IC50 was not above 100 nM.

Consider `CC(C)Oc1ccc(C(=O)CCCC(=O)N[C@H](CN2CCCC2)[C@H](O)c2ccc3c(c2)OCO3)cc1` [Compound 265, N-((1R,2R)-1-(benzo[ε][1,3]-dioxol-5-yl)-1-hydroxy-3-(pyrrolidin-1-yl)propan-2-yl)-5-(4-isopropoxyphenyl)-5-oxopentanamide (2S,3S)-2,3-dihydroxysuccinate], for which the IC50 is not above 100 nM.

As for `CC(C)Oc1ccc(C(=O)CCCCC(=O)N[C@H](CN2CCCC2)[C@H](O)c2ccc3c(c2)OCO3)cc1` [Compound 266], the IC50 is not above 100 nM.

`COc1ccc(C(=O)CCCCC(=O)N[C@H](CN2CCCC2)[C@H](O)c2ccc3c(c2)OCO3)cc1` [Compound 267, N-((1R,2R)-1-(benzo[δ][1,3]dioxol-5-yl)-1-hydroxy-3-(pyrrolidin-1-yl)propan-2-yl)-6-(4-methoxyphenyl)-6-oxohexanamide (2S,3S)-2,3-dihydroxysuccinate]: the IC50 is not above 100 nM.

As for `CC(C)Oc1ccc(C(=O)CCCCCC(=O)N[C@H](CN2CCCC2)[C@H](O)c2ccc3c(c2)OCO3)cc1` [Compound 268, N-((1R,2R)-1-(benzo[δ][1,3]dioxol-5-yl)-1-hydroxy-3-(pyrrolidin-1-yl)propan-2-yl)-7-(4-isopropoxyphenyl)-7-oxoheptanamide (2S,3S)-2,3-dihydroxysuccinate], the IC50 is not above 100 nM.

As to `COc1ccc(C(=O)CCCCC(=O)N[C@H](CN2CCCC2)[C@H](O)c2ccc(OC)cc2)cc1` [Compound 269], the IC50 was not above 100 nM.

For the compound `COc1ccc([C@@H](O)[C@@H](CN2CCCC2)NC(=O)CCCC(=O)c2ccc(OC(C)C)cc2)cc1` [Compound 270, 5-(4-Isopropoxy-phenyl)-5-oxo-pentanoic acid [2-hydroxy-2-(4-methoxy-phenyl)-1-pyrrolidin-1-ylmethyl-ethyl]amide], the IC50 is not above 100 nM.

With `COc1ccc([C@@H](O)[C@@H](CN2CCCC2)NC(=O)CCCCCC(=O)c2ccc(OC(C)C)cc2)cc1` [Compound 271], the IC50 was not above 100 nM.

For `COc1ccc([C@@H](O)[C@@H](CN2CCCC2)NC(=O)CCCCC(=O)c2ccc(OC(C)C)cc2)cc1` [Compound 272], the IC50 was not above 100 nM.

Turning to `COc1ccc([C@@H](O)[C@@H](CN2CCCC2)NC(=O)CCCCCC(C)(C)OC)cc1` [Compound 273], the IC50 fell in the range of 100 to 1000 nM.

Turning to `COc1ccc(OCCC(=O)N[C@H](CN2CCCC2)[C@H](O)c2ccc(OC)c(OC)c2)cc1` [Compound 274], the IC50 lay in the range of 1000 to 3000 nM.

Regarding `COC(=O)CO[C@H](c1ccc2c(c1)OCCO2)[C@@H](CN1CCCC1)NC(=O)CCOc1ccc(OC)cc1` [Compound 275], the IC50 is not above 100 nM.

On to `COc1ccc(C(=O)CCCCCC(=O)N[C@H](CN2CCCC2)[C@H](O)c2ccc(OC)c(OC)c2)cc1` [Compound 276], for which the IC50 lay within 100 to 1000 nM.

For the compound `COc1ccc([C@@H](O)[C@@H](CN2CCCC2)NC(=O)CCCCCC(C)(C)OC)cc1OC` [Compound 277], the IC50 is 3000 to 10000 nM.

With `COc1ccc([C@@H](O)[C@@H](CN2CCCC2)NC(=O)CCCOc2ccc(C(C)=O)cc2)cc1OC` [Compound 278], the IC50 is more than 10000 nM.

With `COc1ccc([C@@H](O)[C@@H](CN2CCCC2)NC(=O)CCCCCC(C)=O)cc1` [Compound 279], the IC50 fell in the range of 1000 to 3000 nM.

As to `COc1ccc(C(=O)CCCC(=O)N[C@H](CN2CCCC2)[C@H](O)c2ccc3c(c2)OCCO3)cc1OC` [Compound 282, N-((1R,2R)-1-(2,3-dihydrobenzo[β][1,4]dioxin-6-yl)-1-hydroxy-3-(pyrrolidin-1-yl)propan-2-yl)-5-(3,4-dimethoxyphenyl)-5-oxopentanamide], the IC50 fell in the range of 1000 to 3000 nM.

For the compound `Cc1ccc(C(=O)CCCC(=O)N[C@H](CN2CCCC2)[C@H](O)c2ccc3c(c2)OCCO3)cc1` [Compound 283, N-((1R,2R)-1-(2,3-dihydrobenzo[b][1,4]dioxin-6-yl)-1-hydroxy-3-(pyrrolidin-1-yl)propan-2-yl)-5-oxo-5-p-tolylpentanamide], the IC50 was not above 100 nM.

In the case of `CC(C)Oc1ccc(C(=O)CCCC(=O)N[C@H](CN2CCCC2)[C@H](O)c2ccc3c(c2)OCCO3)cc1` [Compound 284, N-((1R,2R)-1-(2,3-dihydrobenzo[β][1,4]dioxin-6-yl)-1-hydroxy-3-(pyrrolidin-1-yl)propan-2-yl)-5-(4-isopropoxyphenyl)-5-oxopentanamide], the IC50 was not above 100 nM.

For the compound `COc1ccc(C(=O)CCCCCC(=O)N[C@H](CN2CCCC2)[C@H](O)c2ccc(OC)cc2)cc1` [Compound 285, 7-(4-Methoxy-phenyl)-7-oxo-heptanoic acid [2-hydroxy-2-(4-methoxy-phenyl)-1-pyrrolidin-1-ylmethyl-ethyl]-amide], the IC50 is not above 100 nM.

For the compound `C[C@@H](NC(=O)N[C@H](CN1CCCC1)[C@H](O)c1ccc2c(c1)OCCO2)c1ccccc1` [Compound 286, 1-((1R,2R)-1-(2,3-dihydrobenzo[β][1,4]dioxin-6-yl)-1-hydroxy-3-(pyrrolidin-1-yl)propan-2-yl)-3-(®-1-phenylethyl)urea], the IC50 lay within 3000 to 10000 nM.

As for `O=C(NCCc1cccs1)N[C@H](CN1CCCC1)[C@H](O)c1ccc2c(c1)OCCO2` [Compound 287, 1-((1R,2R)-1-(2,3-dihydrobenzo[β][1,4]dioxin-6-yl)-1-hydroxy-3-(pyrrolidin-1-yl)propan-2-yl)-3-(2-(thiophen-2-yl)ethyl)urea], the IC50 lay in the range of 1000 to 3000 nM.

Take `CCCCCCCCCCCCCCCC(=O)N[C@H](CN1CCCC1)[C@H](O)c1ccc(O)cc1` [Compound 309]: the IC50 is not above 100 nM.

Consider `CCCCCCCC(=O)N[C@H](CNCCCC)[C@H](O)c1ccc2c(c1)OCCO2` [Compound 310], for which the IC50 lay within 1000 to 3000 nM.

With `CCCCCCCC(=O)N[C@H](CN1CCCC1)[C@H](O)CCCCCCC` [Compound 311], the IC50 was in the range of 1000 to 3000 nM.

On to `CCCCCCCCCCCCCCCC(=O)N[C@H](CN1CCCC1)[C@H](O)CCCCCCC` [Compound 312], for which the IC50 was 100 to 1000 nM.

In the case of `CCCCCCCC(=O)N[C@H](CN1CCC(CN2CCCC2)C1)[C@H](O)c1ccc2c(c1)OCCO2` (some centres unmarked) [Compound 313], the IC50 was not above 100 nM.

As for `CCCCCCCC(=O)N[C@H](CN1C(C)CCC1C)[C@H](O)c1ccc2c(c1)OCCO2` (some centres unmarked) [Compound 314], the IC50 is 1000 to 3000 nM.

For the compound `CCCCCCCC(=O)N[C@H](CN1CCCC1)[C@H](OC)c1ccc2c(c1)OCCO2` [Compound 315], the IC50 lay in the range of 100 to 1000 nM.

For `CCCCCCCC(=O)N[C@H](CN1CCCC1CN1CCCC1)[C@H](O)c1ccc2c(c1)OCCO2` (some centres unmarked) [Compound 316], the IC50 was 3000 to 10000 nM.

As for `CCCCCCCCCCCCCCCC(=O)N[C@H](CN1CCOCC1)[C@H](O)c1ccccc1` [Compound 317], the IC50 was in the range of 100 to 1000 nM.

As for `CCCCCCCC(=O)N[C@H](CN1CCCC1)[C@H](O)c1cc(O)c2c(c1)OCCO2` [Compound 318], the IC50 lay within 100 to 1000 nM.

As to `CCCCCCCC(=O)N[C@H](CN1CCCC1)[C@H](O)c1cc(OC)c2c(c1)OCCO2` [Compound 319], the IC50 was in the range of 100 to 1000 nM.

For `CCCCCCCC(=O)N[C@H](CN1CCCC1)[C@H](O)c1ccc(OC)cc1` [Compound 320, Octanoic acid [2-hydroxy-2(4-methoxy-phenyl)-1-Pyrrolidin1-ylmethyl-ethyl]-amide], the IC50 is not above 100 nM.

As for `CCCCCCCC(=O)N[C@H](CN1CCCC1)[C@H](O)c1ccc(OC)c(OC)c1` [Compound 321], the IC50 fell in the range of 1000 to 3000 nM.

Regarding `CCCCCCCC(=O)N[C@H](CN1CCC(F)C1)[C@H](O)c1ccc2c(c1)OCCO2` (some centres unmarked) [Compound 322], the IC50 fell in the range of 100 to 1000 nM.

The test is the same for the next values; noted with them: Table 2; B16-FO cells, 2 days incubation; read-out: IC50_uM_Mean.
For the compound `COc1ccc([C@@H](O)[C@@H](CN2CCCC2)NC(=O)OCc2ccccc2)cc1` [Compound 289, benzyl (1R,2R)-1-hydroxy-1-(4-methoxyphenyl)-3-(pyrrolidin-1-yl)propan-2-ylcarbamate], the IC50 is 100 to 1000 nM.

Still in this test, the particulars now being: Table 3 (IC 50 Values); B16-FO cells; read-out: IC50_uM_Mean.
As to `CCCCCCCC(=O)N[C@H](CN1CCCC1)[C@H](O)c1ccc(OC)c(F)c1` [Compound 340], the IC50 was in the range of 100 to 1000 nM.
